From US20220381779A1, “METHODS FOR THE DIAGNOSIS OF BURULI ULCER” (INSERM (INSTITUT NATIONAL DE LA SANTÉ ET DE LA RECHERCHE …, priority 2019, published 2022)

Test system: CD4+ T cells
Test: Neutralizing activity assay: cytokine production by PMA/ionomycin-stimulated CD4+ T cells in contact with mycolactone
Format: cell-based, C57Bl/6 mice
Conditions: mycolactone 4 ng/mL, 6 h, compared to positive control (T cells only stimulated)
Protocol: FIG. 2: Neutralization of mycolactone by cutaneous immunoglobulin from FVB/N mice infected with M. ulcerans. CD4+ lymphocytes were stimulated with PMA/ionomycin. Mycolactone was used at a concentration of 4 ng/mL. Immunoglobulins purified from the skin of A) FVB/N mice or B) C57Bl/6 mice infected with M. ulcerans were used at a ratio of 10 immunoglobulin molecules per molecule of mycolactone. Left panel: IL-2 quantification, Right panel: IFNγ quantification. The data shown correspond to one experiment performed in triplicate (mean±SD).
CD4+ T cells were isolated from the spleens of C57Bl/6 mice by magnetic sorting (MACS technology kit 130-104-454), according to the manufacturer's instructions (Miltenyi Biotec). The purity of CD4+ T-cell preparations was determined by flow cytometry, with PE-conjugated anti-CD4 monoclonal antibody (eBioscience) and FITC-conjugated anti-CD3E monoclonal antibody (eBioscience). […] IL-2 and IFN-γ were quantified by ELISA (eBioscience), according to the manufacturer's instructions (Mouse IL-2 Ready-SET-Go: 88-7024 and Mouse IFN-γ Ready-SET-Go: 88-7314 respectively).
In this context, we assessed whether these antibodies could not only recognized but also neutralized mycolactone, by evaluating cytokines production by T lymphocytes as an indicator of the immunomodulatory property of mycolactone. […]

CC(=C\C=C\C(C)=C\[C@H](O)[C@@H](O)C[C@H](C)O)/C=C(C)/C=C/C(=O)O[C@H]1CCCC(=O)O[C@@H]([C@@H](C)C/C(C)=C/[C@@H](C)[C@H](O)C[C@@H](C)O)C/C=C(\C)C[C@@H]1C [mycolactone, [(6S,7S,9E,12R)-12-[(E,2S,6R,7R,9R)-7,9-dihydroxy-4,6-dimethyldec-4-en-2-yl]-7,9-dimethyl-2-oxo-1-oxacyclododec-9-en-6-yl] (2E,4E,6E,8E,10E,12S,13S,15S)-12,13,15-trihydroxy-4,6,10-trimethylhexadeca-2,4,6,8,10-pentaenoate]
IFNγ production by T cells: greatly decreased | IL-2 production by T cells: greatly decreased
